Measurements as given in PubChem BioAssay (NCI).
Values joined by “and” are separate entries in the source; they are usually repeats but may differ in a detail not shown here. Equal entries are not always repeated.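 These data come from cells grown in 96-well plates and exposed to compound for 48 hours at five concentrations. The concentration for 50% growth inhibition is given as GI50. TGI denotes the concentration required for complete inhibition of growth.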

System: OVCAR-3 ovarian
Assay: NCI-60 cell line screen, 48 h

| SMILES | GI50 | TGI |
| --- | --- | --- |
| Cn1c(Nc2ccc(C(F)(F)F)cc2)nc2cc(Oc3ccnc(-c4ncc(C(F)(F)F)[nH]4)c3)ccc21 | 1.54 µM | 7.54 µM |
| COc1ccc(-c2nsc3c2NC(=O)CC3c2cccc(OC)c2)cc1 (stereo not drawn) | 0.705 µM | 4.41 µM |
| C[C@@]12CCC[C@@](C)(C(=O)O)C1CC[C@]13CC(=O)[C@](CO)(C1)[C@@H](O)CC32 (stereo partly drawn) | > 100 µM | > 100 µM |
| O=[N+]([O-])c1ccc(CI)cc1 | 2.4 µM | 5.41 µM |
| CN(C)C/C=C/C(=O)Nc1cc2c(Nc3ccc(F)c(Cl)c3)ncnc2cc1O[C@H]1CCOC1 | 0.232 µM and 0.229 µM | 2.54 µM and > 4.93 µM |
| Cn1cnnc1Sc1c([N+](=O)[O-])ncn1C |  | > 100 µM |
| C=CCC1(CN(C)C)CC/C(=C\c2ccc(Cl)cc2)C1=O (stereo not drawn) |  | > 100 µM |
| COc1cc(/C=C/C(=O)c2cccc(-n3cc(-c4ccc(Cl)cc4)[nH]c3=O)c2)ccc1O | 1.56 µM | 3.57 µM |
| CC(=O)N1CCC(=O)/C(=C/c2ccccc2)C1 |  | 93.5 µM |
| C[Si](C)(C)/C(Br)=C\CCN1C(=O)CCC1=O |  | > 100 µM |
| CC1(Br)Cc2ccccc2C1=O (stereo not drawn) | 4.11 µM | 14.5 µM |
| C[C@]12CCC(=O)C=C1CC[C@@H]1C2CC[C@]2(C)Nc3[nH]ncc3CC12 (stereo partly drawn) |  | > 100 µM |
| CCOC(=O)/C=C/c1ccc(C#Cc2ccccc2)cc1 | > 100 µM | > 100 µM |
| O=[P@@]1(c2ccccc2)O[C@H](COCc2ccccc2)[C@@H](OCc2ccccc2)[C@H](OCc2ccccc2)[C@H]1NCc1ccccc1 | 3.17 µM | 19.3 µM |
| O=C1c2cc3c(cc2-c2c1c1cc(Cl)c(Cl)cc1c(=O)n2C[C@H](O)CO)OCO3 | 0.0157 µM | 0.0769 µM |
| COc1ccc(/C(=C\C=C(C#N)C#N)Sc2nc3ccccc3s2)cc1 | 8.26 µM | 17.7 µM |
| CC(C)(C)[Si](C)(C)OC1C(=O)C[C@H]2CCCC[C@@H]12 (stereo partly drawn) |  | > 100 µM |
| COc1cc(/C=C\c2cc(OC)c(OC)c(OC)c2)cc(N/C=C\C(=O)c2cc(OC)c(OC)c(OC)c2)c1OC | 2.31 µM | 5.82 µM |
| Clc1nc(Cl)nc(Nc2cccc3ccccc23)n1 | > 100 µM | > 100 µM |
| CN(C)c1ncnc2c1ncn2CCn1cnc2c(N(C)C)ncnc21 |  | > 100 µM |
| Cc1cc(N(CCCNc2ccnc3cc(Cl)ccc23)Cc2ccc3c(c2)OCO3)nc(N2CCOCC2)n1 | 0.359 µM | 1.92 µM |
| CCOC(=O)C1SC(=Nc2ccccc2)N=C1C (stereo not drawn) |  | > 100 µM |
| O=C1CCC(=O)c2c1c(O)c1ccncc1c2O |  | 7.24 µM |
| C=CCN1CCC23c4c5ccc(O)c4OC2C(=NN=C2CCC4(O)C6Cc7ccc(O)c8c7C4(CCN6CC=C)C2O8)CCC3(O)C1C5 (stereo not drawn) |  | 34.5 µM |
| CN1CC[C@@H](c2c(O)cc(O)c3c(=O)cc(-c4ccc(C(F)(F)F)cc4Cl)oc23)[C@@H]1CO | 17 µM | 46.9 µM |
| COC(=O)C1=C(C(=O)OC)C2=S(SC3=C2CCCC3)S1 (stereo not drawn) |  | 40.1 µM |
| O=C(Nc1ccc(Cl)c(C(F)(F)F)c1)c1ccc(NC2=C(Cl)C(=O)N(Cc3ccccc3)C2=O)cc1 | 18.6 µM | 37.9 µM |
| COC(=O)c1ccc(-c2c(C#N)[n+](=O)c3cc(Cl)c(Cl)cc3n2[O-])cc1 | 11 µM | 27.8 µM |
| Cn1cc(-c2csc(-c3c[nH]c4ccc(Br)cc34)n2)c2cnccc21 | 2.08 µM | 4.19 µM |
| COc1ccc(Cn2c(N)c(S(=O)(=O)c3ccc(Cl)cc3)c3nc(C#N)c(C#N)nc32)cc1 | 2.9 µM | 19.4 µM |

System: NCI-H522 lung
Assay: NCI-60 cell line screen, 48 h

| SMILES | GI50 | TGI |
| --- | --- | --- |
| Cn1c(Nc2ccc(C(F)(F)F)cc2)nc2cc(Oc3ccnc(-c4ncc(C(F)(F)F)[nH]4)c3)ccc21 | 0.307 µM | 11 µM |
| COc1ccc(-c2nsc3c2NC(=O)CC3c2cccc(OC)c2)cc1 (stereo not drawn) | 0.702 µM | 5.28 µM |
| C[C@@]12CCC[C@@](C)(C(=O)O)C1CC[C@]13CC(=O)[C@](CO)(C1)[C@@H](O)CC32 (stereo partly drawn) | > 100 µM | > 100 µM |
| O=[N+]([O-])c1ccc(CI)cc1 | 1.41 µM | 3.02 µM |
| CN(C)C/C=C/C(=O)Nc1cc2c(Nc3ccc(F)c(Cl)c3)ncnc2cc1O[C@H]1CCOC1 | 0.0189 µM and 0.00532 µM | 1.15 µM and 2.74 µM |
| Cn1cnnc1Sc1c([N+](=O)[O-])ncn1C |  | 25.6 µM |
| C=CCC1(CN(C)C)CC/C(=C\c2ccc(Cl)cc2)C1=O (stereo not drawn) |  | 41.9 µM |
| COc1cc(/C=C/C(=O)c2cccc(-n3cc(-c4ccc(Cl)cc4)[nH]c3=O)c2)ccc1O | 1.81 µM | 11 µM |
| CC1(Br)Cc2ccccc2C1=O (stereo not drawn) | 0.318 µM | 1.41 µM |
| O=[P@@]1(c2ccccc2)O[C@H](COCc2ccccc2)[C@@H](OCc2ccccc2)[C@H](OCc2ccccc2)[C@H]1NCc1ccccc1 | 5.75 µM | > 100 µM |
| O=C1c2cc3c(cc2-c2c1c1cc(Cl)c(Cl)cc1c(=O)n2C[C@H](O)CO)OCO3 | < 0.01 µM | 0.122 µM |
| COc1ccc(/C(=C\C=C(C#N)C#N)Sc2nc3ccccc3s2)cc1 | 14.6 µM | > 50 µM |
| CCN(CC)CCSc1c2ccccc2nc2c(OC)ccc(OC)c12 |  | 19.8 µM |
| CCOC(=O)c1ccc(N=Nc2cc(C(=O)OCC)ccc2O)cc1 |  | > 100 µM |
| [N-]=[N+]=N/C1=C/CCCCC(=O)C1 |  | > 100 µM |
| CN(C)c1ncnc2c1ncn2CCn1cnc2c(N(C)C)ncnc21 |  | > 100 µM |
| Cc1cc(N(CCCNc2ccnc3cc(Cl)ccc23)Cc2ccc3c(c2)OCO3)nc(N2CCOCC2)n1 | 0.185 µM | 0.477 µM |
| CCOC(=O)C1SC(=Nc2ccccc2)N=C1C (stereo not drawn) |  | > 100 µM |
| O=C1CCC(=O)c2c1c(O)c1ccncc1c2O |  | 24.5 µM |
| C=CCN1CCC23c4c5ccc(O)c4OC2C(=NN=C2CCC4(O)C6Cc7ccc(O)c8c7C4(CCN6CC=C)C2O8)CCC3(O)C1C5 (stereo not drawn) |  | 72.1 µM |
| CN1CC[C@@H](c2c(O)cc(O)c3c(=O)cc(-c4ccc(C(F)(F)F)cc4Cl)oc23)[C@@H]1CO | 17.4 µM | 37.3 µM |
| CN(C)CCNC(=O)c1cccc2c(Nc3ccc(S(=O)(=O)N=C(N)N)cc3)c3ccccc3nc12 |  | 17.3 µM |
| COC(=O)C1=C(C(=O)OC)C2=S(SC3=C2CCCC3)S1 (stereo not drawn) |  | 11.3 µM |
| O=C(Nc1ccc(Cl)c(C(F)(F)F)c1)c1ccc(NC2=C(Cl)C(=O)N(Cc3ccccc3)C2=O)cc1 | 2.18 µM | 5.54 µM |
| COC(=O)c1ccc(-c2c(C#N)[n+](=O)c3cc(Cl)c(Cl)cc3n2[O-])cc1 | 4.12 µM | > 100 µM |
| COc1ccc(Cn2c(N)c(S(=O)(=O)c3ccc(Cl)cc3)c3nc(C#N)c(C#N)nc32)cc1 | 5.82 µM | > 50 µM |

System: HCT-15 colon
Assay: NCI-60 cell line screen, 48 h

| SMILES | GI50 | TGI |
| --- | --- | --- |
| Cn1c(Nc2ccc(C(F)(F)F)cc2)nc2cc(Oc3ccnc(-c4ncc(C(F)(F)F)[nH]4)c3)ccc21 | 0.0697 µM | 12.8 µM |
| COc1ccc(-c2nsc3c2NC(=O)CC3c2cccc(OC)c2)cc1 (stereo not drawn) | 0.527 µM | > 100 µM |
| C[C@@]12CCC[C@@](C)(C(=O)O)C1CC[C@]13CC(=O)[C@](CO)(C1)[C@@H](O)CC32 (stereo partly drawn) | > 100 µM | > 100 µM |
| O=[N+]([O-])c1ccc(CI)cc1 | 1.17 µM | 3.76 µM |
| CN(C)C/C=C/C(=O)Nc1cc2c(Nc3ccc(F)c(Cl)c3)ncnc2cc1O[C@H]1CCOC1 | 1.59 µM and 1.33 µM | 12.1 µM and > 9.47 µM |
| C=CCC1(CN(C)C)CC/C(=C\c2ccc(Cl)cc2)C1=O (stereo not drawn) |  | 58.4 µM |
| COc1cc(/C=C/C(=O)c2cccc(-n3cc(-c4ccc(Cl)cc4)[nH]c3=O)c2)ccc1O | 1.8 µM | 7.07 µM |
| CC(=O)N1CCC(=O)/C(=C/c2ccccc2)C1 |  | 48.2 µM |
| C[Si](C)(C)/C(Br)=C\CCN1C(=O)CCC1=O |  | > 100 µM |
| C[C@]12CCC(=O)C=C1CC[C@@H]1C2CC[C@]2(C)Nc3[nH]ncc3CC12 (stereo partly drawn) |  | > 100 µM |
| CCOC(=O)/C=C/c1ccc(C#Cc2ccccc2)cc1 | > 100 µM | > 100 µM |
| O=[P@@]1(c2ccccc2)O[C@H](COCc2ccccc2)[C@@H](OCc2ccccc2)[C@H](OCc2ccccc2)[C@H]1NCc1ccccc1 | 3.54 µM | > 100 µM |
| O=C1c2cc3c(cc2-c2c1c1cc(Cl)c(Cl)cc1c(=O)n2C[C@H](O)CO)OCO3 | 0.0127 µM | 14.3 µM |
| CC(C)(C)[Si](C)(C)OC1C(=O)C[C@H]2CCCC[C@@H]12 (stereo partly drawn) |  | > 100 µM |
